Experimental data reported in article PMC6017193, “Structure-Based Discovery of a Series of 5H-Pyrrolo[2,3-b]pyrazine FGFR Kinase Inhibitors” (Molecules : A Journal of Synthetic Chemistry and Natural …, 2018).

Tests used:
Test in all cases: Kinase panel profiling
Format in all cases: biochemical
[1] = target: KDR (Homo sapiens, UniProt P35968)
[2] = target: ErbB2 (Homo sapiens, UniProt P04626)
[3] = target: VEGFR-1 (Homo sapiens, UniProt P17948)
[4] = target: Src (Homo sapiens, UniProt P12931)
Sequence of Src (P12931 whole entry, species assumed): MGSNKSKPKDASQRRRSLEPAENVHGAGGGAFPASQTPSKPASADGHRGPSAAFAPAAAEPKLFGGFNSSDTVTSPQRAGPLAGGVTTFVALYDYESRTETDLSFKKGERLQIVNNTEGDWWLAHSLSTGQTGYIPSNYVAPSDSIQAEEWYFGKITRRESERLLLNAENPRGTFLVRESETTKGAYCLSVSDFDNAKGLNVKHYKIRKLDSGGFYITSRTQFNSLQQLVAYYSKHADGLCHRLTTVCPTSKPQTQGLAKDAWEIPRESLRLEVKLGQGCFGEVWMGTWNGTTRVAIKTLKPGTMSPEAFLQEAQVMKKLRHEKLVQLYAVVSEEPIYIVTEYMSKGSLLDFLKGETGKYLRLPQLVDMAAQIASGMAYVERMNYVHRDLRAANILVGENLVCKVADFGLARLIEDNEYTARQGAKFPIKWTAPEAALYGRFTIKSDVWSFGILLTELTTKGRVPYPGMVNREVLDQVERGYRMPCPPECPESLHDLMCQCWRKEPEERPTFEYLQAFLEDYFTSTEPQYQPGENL

Sequence of KDR (P35968 20-1356, species assumed): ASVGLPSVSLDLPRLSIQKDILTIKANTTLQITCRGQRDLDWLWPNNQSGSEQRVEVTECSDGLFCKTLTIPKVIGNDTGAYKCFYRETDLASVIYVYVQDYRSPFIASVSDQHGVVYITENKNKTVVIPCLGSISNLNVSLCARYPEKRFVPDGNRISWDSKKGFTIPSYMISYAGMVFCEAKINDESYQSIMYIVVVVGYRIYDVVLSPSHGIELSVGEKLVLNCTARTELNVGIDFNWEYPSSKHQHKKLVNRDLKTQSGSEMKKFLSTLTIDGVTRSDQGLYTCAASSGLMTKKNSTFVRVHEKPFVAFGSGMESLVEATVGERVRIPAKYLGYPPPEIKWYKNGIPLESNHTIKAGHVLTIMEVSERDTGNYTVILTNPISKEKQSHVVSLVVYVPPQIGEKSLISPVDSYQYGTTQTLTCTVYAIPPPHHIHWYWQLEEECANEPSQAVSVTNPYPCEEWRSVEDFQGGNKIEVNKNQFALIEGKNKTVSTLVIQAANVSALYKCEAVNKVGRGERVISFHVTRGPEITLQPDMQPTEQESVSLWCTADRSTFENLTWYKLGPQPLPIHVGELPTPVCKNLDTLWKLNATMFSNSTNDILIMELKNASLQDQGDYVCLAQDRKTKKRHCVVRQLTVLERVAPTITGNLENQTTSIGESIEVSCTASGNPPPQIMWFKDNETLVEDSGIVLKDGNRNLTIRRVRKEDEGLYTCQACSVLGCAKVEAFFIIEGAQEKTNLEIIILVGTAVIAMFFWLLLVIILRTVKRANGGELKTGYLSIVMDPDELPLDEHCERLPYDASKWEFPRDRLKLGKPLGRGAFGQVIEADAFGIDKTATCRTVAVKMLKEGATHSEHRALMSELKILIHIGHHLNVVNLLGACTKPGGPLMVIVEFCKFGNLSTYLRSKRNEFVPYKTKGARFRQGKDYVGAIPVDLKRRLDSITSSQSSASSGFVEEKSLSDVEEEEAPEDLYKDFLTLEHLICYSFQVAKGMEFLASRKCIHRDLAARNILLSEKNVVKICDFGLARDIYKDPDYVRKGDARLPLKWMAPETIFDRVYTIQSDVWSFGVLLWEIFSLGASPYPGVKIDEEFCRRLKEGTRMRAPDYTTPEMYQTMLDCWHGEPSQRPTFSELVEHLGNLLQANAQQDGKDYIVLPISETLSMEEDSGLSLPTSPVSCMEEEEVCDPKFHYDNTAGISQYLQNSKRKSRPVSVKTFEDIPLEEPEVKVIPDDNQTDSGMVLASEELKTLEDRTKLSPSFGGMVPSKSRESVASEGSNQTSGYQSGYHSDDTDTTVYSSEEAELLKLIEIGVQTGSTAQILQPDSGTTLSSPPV
Sequence of ErbB2 (P04626 23-1255, species assumed): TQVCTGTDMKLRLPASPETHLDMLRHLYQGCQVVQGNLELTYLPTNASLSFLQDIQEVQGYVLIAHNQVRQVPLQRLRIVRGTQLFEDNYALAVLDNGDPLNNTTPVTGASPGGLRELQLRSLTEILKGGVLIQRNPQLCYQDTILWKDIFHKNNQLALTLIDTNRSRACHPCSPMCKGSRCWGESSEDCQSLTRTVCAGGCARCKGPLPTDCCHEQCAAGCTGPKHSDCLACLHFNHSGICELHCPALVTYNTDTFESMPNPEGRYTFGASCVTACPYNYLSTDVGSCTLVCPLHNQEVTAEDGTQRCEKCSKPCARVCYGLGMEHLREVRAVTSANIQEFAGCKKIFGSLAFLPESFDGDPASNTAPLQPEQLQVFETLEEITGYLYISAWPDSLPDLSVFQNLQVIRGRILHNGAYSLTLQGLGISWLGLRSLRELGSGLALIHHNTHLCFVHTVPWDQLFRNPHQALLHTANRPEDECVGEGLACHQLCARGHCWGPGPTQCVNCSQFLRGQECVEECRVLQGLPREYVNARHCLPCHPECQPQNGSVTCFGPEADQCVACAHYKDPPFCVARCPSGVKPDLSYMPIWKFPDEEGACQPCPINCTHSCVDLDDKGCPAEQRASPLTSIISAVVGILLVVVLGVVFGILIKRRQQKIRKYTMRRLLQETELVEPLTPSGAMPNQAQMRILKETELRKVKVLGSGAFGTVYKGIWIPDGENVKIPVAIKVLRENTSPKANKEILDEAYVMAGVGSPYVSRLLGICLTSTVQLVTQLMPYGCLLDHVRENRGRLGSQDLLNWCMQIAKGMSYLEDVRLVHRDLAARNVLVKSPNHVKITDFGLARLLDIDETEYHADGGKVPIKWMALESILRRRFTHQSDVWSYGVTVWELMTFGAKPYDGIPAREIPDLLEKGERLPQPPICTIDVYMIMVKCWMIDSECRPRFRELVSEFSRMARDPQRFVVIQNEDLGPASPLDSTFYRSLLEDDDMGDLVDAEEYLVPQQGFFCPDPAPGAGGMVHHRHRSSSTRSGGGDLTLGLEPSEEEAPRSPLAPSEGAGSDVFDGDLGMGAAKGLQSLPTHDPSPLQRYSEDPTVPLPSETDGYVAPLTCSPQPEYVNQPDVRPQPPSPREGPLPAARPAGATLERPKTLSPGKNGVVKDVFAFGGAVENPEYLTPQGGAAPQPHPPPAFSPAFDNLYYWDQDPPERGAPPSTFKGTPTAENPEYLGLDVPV
Sequence of VEGFR-1 (P17948 27-1338, species assumed): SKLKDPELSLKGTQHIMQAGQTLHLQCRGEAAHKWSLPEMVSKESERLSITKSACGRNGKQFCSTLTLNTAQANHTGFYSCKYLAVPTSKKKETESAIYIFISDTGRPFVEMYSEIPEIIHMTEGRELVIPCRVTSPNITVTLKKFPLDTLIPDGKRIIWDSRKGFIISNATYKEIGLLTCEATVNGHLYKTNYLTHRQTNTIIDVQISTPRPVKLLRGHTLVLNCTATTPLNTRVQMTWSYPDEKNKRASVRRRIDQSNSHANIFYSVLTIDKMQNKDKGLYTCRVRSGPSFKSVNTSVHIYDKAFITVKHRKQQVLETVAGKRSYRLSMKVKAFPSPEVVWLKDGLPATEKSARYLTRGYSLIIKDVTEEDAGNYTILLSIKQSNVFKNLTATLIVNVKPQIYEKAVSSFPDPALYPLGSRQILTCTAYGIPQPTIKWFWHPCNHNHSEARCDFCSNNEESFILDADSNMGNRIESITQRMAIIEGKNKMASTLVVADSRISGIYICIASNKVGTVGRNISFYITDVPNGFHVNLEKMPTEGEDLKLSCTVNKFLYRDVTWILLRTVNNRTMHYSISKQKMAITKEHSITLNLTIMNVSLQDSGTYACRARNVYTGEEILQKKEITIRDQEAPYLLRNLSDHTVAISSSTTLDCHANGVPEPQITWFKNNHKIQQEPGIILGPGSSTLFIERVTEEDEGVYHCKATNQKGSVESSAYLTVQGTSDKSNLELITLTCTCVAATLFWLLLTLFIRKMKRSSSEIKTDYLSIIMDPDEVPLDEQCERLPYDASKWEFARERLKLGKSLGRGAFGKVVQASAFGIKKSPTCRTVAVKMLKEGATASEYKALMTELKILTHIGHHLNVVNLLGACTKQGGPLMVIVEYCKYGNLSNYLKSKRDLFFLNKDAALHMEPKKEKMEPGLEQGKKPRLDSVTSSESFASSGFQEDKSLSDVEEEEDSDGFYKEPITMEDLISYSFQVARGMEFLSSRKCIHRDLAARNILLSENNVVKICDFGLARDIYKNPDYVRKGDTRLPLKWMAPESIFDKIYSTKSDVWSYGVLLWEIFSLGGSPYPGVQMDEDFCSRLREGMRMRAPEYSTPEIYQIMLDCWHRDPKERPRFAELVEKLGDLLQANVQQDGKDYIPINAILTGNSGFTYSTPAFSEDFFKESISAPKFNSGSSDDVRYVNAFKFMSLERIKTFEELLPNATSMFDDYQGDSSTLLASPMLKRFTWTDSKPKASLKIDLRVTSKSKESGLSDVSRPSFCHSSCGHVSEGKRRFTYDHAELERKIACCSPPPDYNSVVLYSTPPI

Structure (SMILES): O=S(=O)(c1cn(CCF)cn1)n1ccc2ncc(-c3cn[nH]c3)nc21 [Compound 13, 5-((1-(2-fluoroethyl)-1H-imidazol-4-yl)sulfonyl)-3-(1H-pyrazol-4-yl)-5H-pyrrolo[2,3-b]pyrazine]
- inhibition at 0.01 µM ([1]; 10 nM): 7.4%
- inhibition at 0.1 µM ([1]; 100 nM): 17.1%
- inhibition at 1 µM ([1]; 1000 nM): 46.3%
- inhibition at 0.01 µM ([2]; 10 nM): 0%
- inhibition at 0.1 µM ([2]; 100 nM): 0%
- inhibition at 1 µM ([2]; 1000 nM): 0%
- inhibition at 0.01 µM ([3]; 10 nM): 0%
- inhibition at 0.1 µM ([3]; 100 nM): 4.9%
- inhibition at 1 µM ([3]; 1000 nM): 0%
- inhibition at 0.01 µM ([4]; 10 nM): 0%
- inhibition at 0.1 µM ([4]; 100 nM): 0%
- inhibition at 1 µM ([4]; 1000 nM): 0%
